Data on four compounds can be found in ChEMBL document CHEMBL1141281, “Targeted natural product isolation guided by HPLC-SPE-NMR: constituents of Hubertia species” (2007).

In brackets after ≈: the same amount, converted by molar mass. Activity calls are given as the source filed them. The calls are words filed in the database; no cut-off is given here.

Assay [1] deals with Escherichia coli. The assay can be described thus: Antimicrobial activity against Escherichia coli ATCC 11229 after 24 hrs by MTT assay. Type of assay: functional. The settings on record: ATCC 11229, 24 h. For orientation: Tetrazolium assays rely on reduction of a dye to a coloured formazan, in cell work by metabolically active cells.
Assay [2] has as its system Staphylococcus aureus. Description: Antimicrobial activity against Staphylococcus aureus ATCC 6538 after 24 hrs by MTT assay. Type of assay: functional. The conditions noted are these: ATCC 6538, 24 h.
Assay [3] has as its system Bacillus subtilis. The assay can be described thus: Antimicrobial activity against Bacillus subtilis ATCC 6633 after 24 hrs by MTT assay. Type of assay: functional. The settings on record: ATCC 6633, 24 h.
The subject of assay [4] is Escherichia coli. Description: Antimicrobial activity against Escherichia coli ATCC 11229 at 500 ug/mL after 24 hrs by MTT assay. The format is functional, organism-based.
Assay [5] has as its system Staphylococcus aureus. Description: Antimicrobial activity against Staphylococcus aureus ATCC 6538 at 500 ug/mL after 24 hrs by MTT assay. Type of assay: functional, organism-based.
Assay [6] concerns Bacillus subtilis. The assay can be described thus: Antimicrobial activity against Bacillus subtilis ATCC 6633 at 500 ug/mL after 24 hrs by MTT assay. Type of assay: functional, organism-based.
The nature of assay [7]: Inhibition of Cu2+ induced human LDL oxidation. Type of assay: functional.

With `CN[C@@H]1[C@H](O[C@H]2[C@H](O[C@H]3[C@H](O)[C@@H](O)[C@H](N=C(N)N)[C@@H](O)[C@@H]3N=C(N)N)O[C@@H](C)[C@]2(O)C=O)O[C@@H](CO)[C@H](O)[C@H]1O` (stereo in doubt) [STREPTOMYCIN], the MIC with Escherichia coli [1], in the assay with Staphylococcus aureus [2] and in the assay with Bacillus subtilis [3] was 12.5 µg/mL (≈ 21.5 µM) throughout.

In the case of `O=C1C=CC(O)(CC(=O)O[C@H]2[C@H](OC(=O)/C=C/c3ccc(O)c(O)c3)C[C@](O)(C(=O)O)C[C@H]2OC(=O)/C=C/c2ccc(O)c(O)c2)C=C1`, the result with Escherichia coli [4], in the assay on Staphylococcus aureus [5] and with Bacillus subtilis [6] was inactive.

As for `O=C(/C=C/c1ccc(O)c(O)c1)O[C@@H]1C[C@](O)(C(=O)O)C[C@@H](OC(=O)/C=C/c2ccc(O)c(O)c2)[C@H]1O`, the Activity entry in assay [7] was “Dose-dependent effect”.

Consider `O=C(C=Cc1ccc(O)c(O)c1)O[C@@H]1C[C@](O)(C(=O)O)C[C@@H](O)[C@H]1O`, for which the Activity entry in assay [7] is “Dose-dependent effect”.
